# What was measured:
# Rattus norvegicus = assay: pA2 value was determined for antidiuretic V2 antagonistic activity in vivo in anesthetized rats pA2 value was determined for antidiuretic V2 antagonistic activity in vivo in anesthetized rats; type: functional, organism-based; details: Urine, read-out: pA2 (converted)
# Vasopressin V1 receptor = Vasopressin V1 receptor (Rattus norvegicus, UniProt P48974+P30560); assay: pA2 value was determined for Vasopressin V1 receptor antagonistic activity in vivo in anesthetized rats; type: functional, organism-based
# [1] = biological target: Vasopressin V2 receptor (Rattus norvegicus) (UniProt Q00788); assay: Effective dose was determined for Vasopressin V2 receptor antagonistic activity in vivo in anesthetized rats; type: functional, organism-based
# Vasopressin V2 receptor = Vasopressin V2 receptor (Rattus norvegicus, UniProt Q00788); assay: Vasopressin V2 receptor antagonistic activity in vivo in anesthetized rats; type: functional, organism-based; details: for Kb: read-out: pA2 (converted)
# [2] = biological target: Vasopressin V1 receptor (Rattus norvegicus) (UniProt P48974+P30560); assay: Effective dose was determined for Vasopressin V1 receptor antagonistic activity in vivo in anesthetized rats; type: functional, organism-based
# [3] = biological target: Vasopressin V2 receptor (Rattus norvegicus) (UniProt Q00788); assay: Selectivity ratio of antidiuretic Vasopressin V2 receptor ED /[…] receptor ED; details: Urine
# Sequence of Vasopressin V1 receptor (Rattus norvegicus) (P30560 whole entry, looked up): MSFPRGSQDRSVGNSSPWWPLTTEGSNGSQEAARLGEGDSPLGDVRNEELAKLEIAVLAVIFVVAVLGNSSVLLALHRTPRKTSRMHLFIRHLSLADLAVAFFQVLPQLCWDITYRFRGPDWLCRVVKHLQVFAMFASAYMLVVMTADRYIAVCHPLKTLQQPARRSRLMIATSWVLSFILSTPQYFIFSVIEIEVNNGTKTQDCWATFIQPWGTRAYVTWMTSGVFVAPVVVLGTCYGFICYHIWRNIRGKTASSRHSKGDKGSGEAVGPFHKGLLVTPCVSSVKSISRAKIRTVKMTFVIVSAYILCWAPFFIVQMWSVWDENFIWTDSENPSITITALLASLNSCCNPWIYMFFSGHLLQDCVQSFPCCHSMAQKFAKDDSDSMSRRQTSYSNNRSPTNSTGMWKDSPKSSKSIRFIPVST
# Sequence of Vasopressin V1 receptor (Rattus norvegicus) (P48974 whole entry, looked up): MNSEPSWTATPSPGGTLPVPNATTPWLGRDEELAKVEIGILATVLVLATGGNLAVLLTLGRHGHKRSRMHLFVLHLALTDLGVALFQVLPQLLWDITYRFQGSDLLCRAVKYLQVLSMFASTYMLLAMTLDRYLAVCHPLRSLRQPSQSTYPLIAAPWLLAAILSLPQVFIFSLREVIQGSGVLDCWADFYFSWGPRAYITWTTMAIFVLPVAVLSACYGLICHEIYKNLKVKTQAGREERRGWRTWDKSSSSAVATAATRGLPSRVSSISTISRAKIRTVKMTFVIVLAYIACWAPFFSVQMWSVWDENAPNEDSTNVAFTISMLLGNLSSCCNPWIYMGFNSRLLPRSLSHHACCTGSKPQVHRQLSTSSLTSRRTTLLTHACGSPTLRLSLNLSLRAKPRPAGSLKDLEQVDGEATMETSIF
# Sequence of Vasopressin V2 receptor (Rattus norvegicus) (Q00788 whole entry): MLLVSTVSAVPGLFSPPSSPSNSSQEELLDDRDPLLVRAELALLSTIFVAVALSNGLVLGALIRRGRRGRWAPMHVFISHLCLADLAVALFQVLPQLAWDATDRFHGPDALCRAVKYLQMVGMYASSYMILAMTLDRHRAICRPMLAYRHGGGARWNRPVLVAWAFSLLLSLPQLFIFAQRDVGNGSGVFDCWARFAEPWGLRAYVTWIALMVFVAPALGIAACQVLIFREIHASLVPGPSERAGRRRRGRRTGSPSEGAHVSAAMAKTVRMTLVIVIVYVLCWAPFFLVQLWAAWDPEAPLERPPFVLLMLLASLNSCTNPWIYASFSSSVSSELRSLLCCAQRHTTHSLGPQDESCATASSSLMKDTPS
# Sequence of Vasopressin V2 receptor (Q00788 whole entry): as above
pA2 (Vasopressin V1 receptor),Effective dose [1],Kb (Vasopressin V2 receptor),Effective dose [2],Ratio [3],pA2 (Vasopressin V2 receptor),Structure (SMILES),Kb (Rattus norvegicus)
8.02,–,15.5 nM,–,–,–,CCOc1ccc(C[C@@H](NC(=O)CC23CC4CC(CC(C4)C2)C3)C(=O)N[C@@H](Cc2ccccc2)C(=O)N[C@H](C(=O)N[C@@H](CC(N)=O)C(=O)N[C@@H](CCCCN)C(=O)N2CCC[C@H]2C(=O)N[C@@H](CCCN=C(N)N)C(N)=O)C(C)C)cc1,–
8.01,–,–,–,–,–,CCOc1ccc(C[C@@H](NC(=O)CC23CC4CC(CC(C4)C2)C3)C(=O)N[C@@H](Cc2ccccc2)C(=O)N[C@H](C(=O)N[C@@H](CC(N)=O)C(=O)N[C@@H](CCCN=C(N)N)C(=O)N2CCC[C@H]2C(=O)N[C@@H](CCCN=C(N)N)C(N)=O)C(C)C)cc1,18.6 nM
7.75,–,7.76 nM,–,–,–,CCOc1ccc(C[C@@H](NC(=O)CC23C[C@H]4C[C@@H](C2)C[C@@H](C3)C4)C(=O)N[C@@H](Cc2ccccc2)C(=O)N[C@H](C(=O)N[C@@H](CC(N)=O)C(=O)NCCCC(=O)N2CCC[C@H]2C(=O)N[C@@H](CCCN=C(N)N)C(=O)N[C@@H](CCCN=C(N)N)C(N)=O)C(C)C)cc1,–
–,1.1 nM/kg,–,0.66 nM/kg,1.7,–,CCOc1ccc(C[C@@H](NC(=O)CC23CC4CC(CC(C4)C2)C3)C(=O)N[C@@H](Cc2ccccc2)C(=O)N[C@H](C(=O)N[C@@H](CC(N)=O)C(=O)N[C@@H](CCCCN)C(=O)N2CCC[C@@H]2C(=O)N[C@@H](CCCN=C(N)N)C(N)=O)C(C)C)cc1,–
–,0.71 nM/kg,–,0.5 nM/kg,1.4,–,CCOc1ccc(C[C@@H](NC(=O)CC23CC4CC(CC(C4)C2)C3)C(=O)N[C@@H](Cc2ccccc2)C(=O)N[C@H](C(=O)N[C@@H](CC(N)=O)C(=O)N[C@@H](CCCN=C(N)N)C(=O)N2CCC[C@@H]2C(=O)N[C@@H](CCCN=C(N)N)C(=O)N[C@@H](CCCN=C(N)N)C(N)=O)C(C)C)cc1,–
8.14,–,20 nM,–,–,–,CCOc1ccc(C[C@@H](NC(=O)CC23CC4CC(CC(C4)C2)C3)C(=O)N[C@@H](Cc2ccccc2)C(=O)N[C@H](C(=O)N[C@@H](CC(N)=O)C(=O)N[C@@H](CCCCN)C(=O)N2CCC[C@H]2C(=O)N[C@@H](CCCN=C(N)N)C(=O)N[C@@H](CCCN=C(N)N)C(N)=O)C(C)C)cc1,–
7.43,–,–,–,–,7.21,CCOc1ccc(C[C@@H](NC(=O)CC23C[C@H]4C[C@@H](C2)C[C@@H](C3)C4)C(=O)N[C@@H](Cc2ccccc2)C(=O)N[C@H](C(=O)N[C@@H](CC(N)=O)C(=O)N[C@@H](CC)C(=O)N2CCC[C@H]2C(=O)N[C@@H](CCCN=C(N)N)C(N)=O)C(C)C)cc1,–
–,0.53 nM/kg,–,1.2 nM/kg,0.44,–,CCOc1ccc(C[C@@H](NC(=O)CC23C[C@H]4C[C@@H](C2)C[C@@H](C3)C4)C(=O)N[C@@H](Cc2ccccc2)C(=O)N[C@H](C(=O)N[C@@H](CC(N)=O)C(=O)NCCCC(=O)N2CCC[C@@H]2C(=O)N[C@@H](CCCN=C(N)N)C(=O)N[C@@H](CCCN=C(N)N)C(N)=O)C(C)C)cc1,–
–,1.4 nM/kg,–,0.5 nM/kg,2.8,–,CCOc1ccc(C[C@@H](NC(=O)CC23CC4CC(CC(C4)C2)C3)C(=O)N[C@@H](Cc2ccccc2)C(=O)N[C@H](C(=O)N[C@@H](CC(N)=O)C(=O)N[C@@H](CCCCN)C(=O)N2CCC[C@@H]2C(=O)N[C@@H](CCCN=C(N)N)C(=O)N[C@@H](CCCN=C(N)N)C(N)=O)C(C)C)cc1,–
–,1.1 nM/kg,–,3.2 nM/kg,0.3,–,CCOc1ccc(C[C@@H](NC(=O)CC23CC4CC(CC(C4)C2)C3)C(=O)N[C@@H](Cc2ccccc2)C(=O)N[C@H](C(=O)N[C@@H](CC(N)=O)C(=O)N[C@@H](CCCN)C(=O)N2CCC[C@@H]2C(=O)N[C@@H](CCCN=C(N)N)C(N)=O)C(C)C)cc1,–
–,1.4 nM/kg,–,0.66 nM/kg,2.1,–,CCOc1ccc(C[C@@H](NC(=O)CC23CC4CC(CC(C4)C2)C3)C(=O)N[C@@H](Cc2ccccc2)C(=O)N[C@H](C(=O)N[C@@H](CC(N)=O)C(=O)N[C@@H](CCCN=C(N)N)C(=O)N2CCC[C@@H]2C(=O)N[C@@H](CCCN=C(N)N)C(N)=O)C(C)C)cc1,–

# The next lines start with the molecule.
Structure (SMILES),pA2 (Vasopressin V1 receptor),Effective dose [1],Kb (Vasopressin V2 receptor),Effective dose [2],Ratio [3],pA2 (Vasopressin V2 receptor),Kb (Rattus norvegicus)
CCOc1ccc(C[C@@H](NC(=O)CC(C)(C)C)C(=O)N[C@@H](Cc2ccccc2)C(=O)N[C@H](C(=O)N[C@@H](CC(N)=O)C(=O)N[C@@H](CCCCN)C(=O)N2CCC[C@H]2C(=O)N[C@@H](CCCN=C(N)N)C(N)=O)C(C)C)cc1,8.63,–,–,–,–,–,100 nM
CCOc1ccc(C[C@@H](NC(=O)CC(C)(C)C)C(=O)N[C@@H](Cc2ccccc2)C(=O)N[C@H](C(=O)N[C@@H](CC(N)=O)C(=O)N[C@@H](CCCN=C(N)N)C(=O)N(C)[C@@H](C)C(=O)N[C@@H](CCCN=C(N)N)C(N)=O)C(C)C)cc1,8.34,16 nM/kg,251 nM,0.3 nM/kg,53,–,–
CCOc1ccc(C[C@@H](NC(=O)Cc2ccccc2)C(=O)N[C@@H](Cc2ccccc2)C(=O)N[C@H](C(=O)N[C@@H](CC(N)=O)C(=O)N[C@@H](CCCN)C(=O)N2CCC[C@H]2C(=O)N[C@@H](CCCN=C(N)N)C(=O)N[C@@H](CCCN=C(N)N)C(N)=O)C(C)C)cc1,8.39,–,~58.9 nM,–,–,–,–
CCOc1ccc(C[C@@H](NC(=O)Cc2ccccc2)C(=O)N[C@@H](Cc2ccccc2)C(=O)N[C@H](C(=O)N[C@@H](CC(N)=O)C(=O)N[C@@H](CCCCN)C(=O)N2CCC[C@H]2C(=O)N[C@@H](CCCN=C(N)N)C(=O)N[C@@H](CCCN=C(N)N)C(N)=O)C(C)C)cc1,8.47,–,–,–,–,–,~141 nM
CC(C)[C@H](NC(=O)[C@H](Cc1ccccc1)NC(=O)[C@@H](Cc1ccc(O)cc1)NC(=O)CC12CC3CC(CC(C3)C1)C2)C(=O)N[C@@H](CC(N)=O)C(=O)N[C@@H](CCCN=C(N)N)C(=O)N1CCC[C@H]1C(=O)N[C@@H](CCCN=C(N)N)C(=O)N[C@@H](CCCN=C(N)N)C(N)=O,8.22,–,21.9 nM,–,–,–,–
CCOc1ccc(C[C@@H](NC(=O)Cc2ccccc2)C(=O)N[C@@H](Cc2ccccc2)C(=O)N[C@H](C(=O)N[C@@H](CC(N)=O)C(=O)NCCCC(=O)N2CCC[C@H]2C(=O)N[C@@H](CCCN=C(N)N)C(=O)N[C@@H](CCCN=C(N)N)C(N)=O)C(C)C)cc1,8.42,–,10.2 nM,–,–,–,–
CCOc1ccc(C[C@@H](NC(=O)CC(C)(C)C)C(=O)N[C@@H](Cc2ccccc2)C(=O)N[C@@H](CCC(N)=O)C(=O)N[C@@H](CC(N)=O)C(=O)N[C@@H](CCCCN)C(=O)N2CCC[C@H]2C(=O)N[C@@H](CCCN=C(N)N)C(N)=O)cc1,8.4,–,6310 nM,–,–,–,–
CCOc1ccc(C[C@@H](NC(=O)CC23CC4CC(CC(C4)C2)C3)C(=O)N[C@@H](Cc2ccccc2)C(=O)N[C@H](C(=O)N[C@@H](CC(N)=O)C(=O)N[C@@H](CCCN=C(N)N)C(=O)N2CCC[C@H]2C(=O)N[C@@H](CCCN=C(N)N)C(=O)N[C@@H](CCCN=C(N)N)C(N)=O)C(C)C)cc1,8.13,–,–,–,–,–,10.5 nM
CCOc1ccc(C[C@@H](NC(=O)CC(C)(C)C)C(=O)N[C@@H](Cc2ccccc2)C(=O)N[C@H](C(=O)N[C@@H](CC(N)=O)C(=O)NCCCC(=O)N2CCC[C@@H]2C(=O)N[C@@H](CCCN=C(N)N)C(=O)N[C@@H](CCCN=C(N)N)C(N)=O)C(C)C)cc1,–,0.83 nM/kg,–,0.71 nM/kg,1.2,–,–
COc1ccc(C[C@@H](NC(=O)Cc2ccccc2)C(=O)N[C@@H](Cc2ccccc2)C(=O)N[C@H](C(=O)N[C@@H](CC(N)=O)C(=O)N[C@@H](CCCCN)C(=O)N2CCC[C@H]2C(=O)N[C@@H](CCCN=C(N)N)C(N)=O)C(C)C)cc1,8.61,–,100 nM,–,–,–,–
COc1ccc(C[C@@H](NC(=O)Cc2ccccc2)C(=O)N[C@@H](Cc2ccccc2)C(=O)N[C@@H](CCC(N)=O)C(=O)N[C@@H](CC(N)=O)C(=O)N[C@@H](CCCCN)C(=O)N2CCC[C@@H]2C(=O)N[C@@H](CCCN=C(N)N)C(N)=O)cc1,–,> 24 nM/kg,–,0.083 nM/kg,> 290,–,–
CCOc1ccc(C[C@@H](NC(=O)CC(C)(C)C)C(=O)N[C@@H](Cc2ccccc2)C(=O)N[C@H](C(=O)N[C@@H](CC(N)=O)C(=O)NCCCC(=O)N2CCC[C@H]2C(=O)N[C@@H](CCCN=C(N)N)C(=O)N[C@@H](CCCN=C(N)N)C(N)=O)C(C)C)cc1,7.99,–,12.3 nM,–,–,–,–
CCOc1ccc(C[C@@H](NC(=O)Cc2ccccc2)C(=O)N[C@@H](Cc2ccccc2)C(=O)N[C@H](C(=O)N[C@@H](CC(N)=O)C(=O)NCCCC(=O)N2CCC[C@@H]2C(=O)N[C@@H](CCCN=C(N)N)C(=O)N[C@@H](CCCN=C(N)N)C(N)=O)C(C)C)cc1,–,0.69 nM/kg,–,0.26 nM/kg,2.7,–,–
NCCCC[C@H](NC(=O)[C@H](CC(N)=O)NC(=O)[C@H](CCC(N)=O)NC(=O)[C@H](Cc1ccccc1)NC(=O)[C@@H](Cc1ccc(O)cc1)NC(=O)Cc1ccccc1)C(=O)N1CCC[C@H]1C(=O)N[C@@H](CCCN=C(N)N)C(N)=O,8.91,–,63.1 nM,–,–,–,–
CCOc1ccc(C[C@@H](NC(=O)Cc2ccccc2)C(=O)N[C@@H](Cc2ccccc2)C(=O)N[C@H](C(=O)N[C@@H](CC(N)=O)C(=O)N[C@@H](CCCN)C(=O)N2CCC[C@@H]2C(=O)N[C@@H](CCCN=C(N)N)C(=O)N[C@@H](CCCN=C(N)N)C(N)=O)C(C)C)cc1,–,4 nM/kg,–,0.29 nM/kg,14,–,–
CCOc1ccc(C[C@@H](NC(=O)Cc2ccccc2)C(=O)N[C@@H](Cc2ccccc2)C(=O)N[C@H](C(=O)N[C@@H](CC(N)=O)C(=O)N[C@@H](CCCCN)C(=O)N2CCC[C@H]2C(=O)N[C@@H](CCCN=C(N)N)C(N)=O)C(C)C)cc1,8.81,–,43.7 nM,–,–,–,–
CCOc1ccc(C[C@@H](NC(=O)CC(C)(C)C)C(=O)N[C@@H](Cc2ccccc2)C(=O)N[C@@H](CCC(N)=O)C(=O)N[C@@H](CC(N)=O)C(=O)N[C@@H](CCCCN)C(=O)N2CCC[C@@H]2C(=O)N[C@@H](CCCN=C(N)N)C(N)=O)cc1,–,> 410 nM/kg,–,0.27 nM/kg,> 1500,–,–

# — ChEMBL document CHEMBL1125129, “Design of potent and selective linear antagonists of vasopressor (V1-receptor) responses to vasopressin” (J Med Chem, 1990)
